Assays:
[1] = biological target: T1, human V1a receptor (Homo sapiens, UniProt P37288); assay: Cellular in vitro assay for determining vasopressin receptor activity (V1a, aequorin luminescence); assay type: cell-based; conditions: for IC50: CHO cell line transfected with the human V1a receptor, [Arg8]-vasopressin at EC50 concentration, read-out: IC50 hV1a; for ratio IC50 hV2/hV1a: selectivity ratio of IC50 hV2 to IC50 hV1a
T1 construct: expressed in transfected cells; host or cells: CHO K1 (ATCC), also stably transfected with a modified aequorin
T1 sequence (P37288 whole entry): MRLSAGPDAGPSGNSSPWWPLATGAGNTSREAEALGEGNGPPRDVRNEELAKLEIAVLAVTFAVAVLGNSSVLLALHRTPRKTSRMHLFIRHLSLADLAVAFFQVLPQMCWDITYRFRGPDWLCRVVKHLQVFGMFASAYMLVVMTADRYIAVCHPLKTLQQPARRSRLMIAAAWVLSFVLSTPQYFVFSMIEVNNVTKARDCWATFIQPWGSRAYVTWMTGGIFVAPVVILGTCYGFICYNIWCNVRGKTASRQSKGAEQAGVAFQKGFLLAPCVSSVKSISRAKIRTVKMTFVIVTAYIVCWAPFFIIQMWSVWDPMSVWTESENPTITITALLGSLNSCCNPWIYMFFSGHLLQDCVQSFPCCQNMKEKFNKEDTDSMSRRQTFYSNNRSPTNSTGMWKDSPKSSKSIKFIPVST

[2] = biological target: T2, human V2 receptor (Homo sapiens, UniProt P30518); assay: Cellular in vitro assay for determining vasopressin receptor activity (V2, CRE-luciferase); assay type: cell-based; conditions: CHO cell line transfected with the human V2 receptor; [Arg8]-vasopressin at EC50 concentration; read-out: IC50 hV2
T2 construct: expressed in transfected cells; host or cells: CHO K1 (ATCC) expressing firefly luciferase under a CRE-responsive promoter
T2 sequence (P30518 whole entry): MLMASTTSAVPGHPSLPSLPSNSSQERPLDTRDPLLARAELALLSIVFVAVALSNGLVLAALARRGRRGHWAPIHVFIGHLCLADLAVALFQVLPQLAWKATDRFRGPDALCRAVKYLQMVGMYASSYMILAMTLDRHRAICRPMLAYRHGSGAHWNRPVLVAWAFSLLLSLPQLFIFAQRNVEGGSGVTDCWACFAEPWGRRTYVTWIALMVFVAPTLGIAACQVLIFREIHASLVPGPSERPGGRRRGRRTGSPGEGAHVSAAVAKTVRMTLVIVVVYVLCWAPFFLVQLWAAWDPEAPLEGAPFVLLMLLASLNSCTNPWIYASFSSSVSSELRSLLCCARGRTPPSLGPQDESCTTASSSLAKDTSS
Outline: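 CHO K1 cells stably expressing the human V2 receptor and a CRE-driven firefly luciferase were plated the day before in DMEM/F12 with 2% FCS. Test compounds were added together with [Arg8]-vasopressin at its EC50 and incubated 3 h at 37 °C. Luciferase luminescence was read after Triton lysis and luciferin addition, giving IC50 values.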

Row | Compound | IC50 [1] | ratio IC50 hV2/hV1a [1] | IC50 [2]
1 | C[C@H](OC(N)=O)c1nc(Cn2nc(-c3ccc(Cl)cc3)n(C[C@H](O)C(F)(F)F)c2=O)nn1-c1cnccc1Cl [Example 21, (1S)-1-[3-({3-(4-Chlorophenyl)-5-oxo-4-[(2S)-3,3,3-trifluoro-2-hydroxypropyl]-4,5-dihydro-1H-1,2,4-triazol-1-yl}methyl)-1-(4-chloropyridin-3-yl)-1H-1,2,4-triazol-5-yl]ethyl Carbamate] | 1.9 nM | 9.2 | 17.5 nM
2 | C[C@@H](OC(N)=O)c1nc(Cn2nc(-c3ccc(Cl)cc3)n(C[C@H](O)C(F)(F)F)c2=O)nn1-c1ncccc1OC(F)(F)F [Example 23, (1R)-1-{3-({3-(4-Chlorophenyl)-5-oxo-4-[(2S)-3,3,3-trifluoro-2-hydroxypropyl]-4,5-dihydro-1H-1,2,4-triazol-1-yl}methyl)-1-[3-(trifluoromethoxy)pyridin-2-yl]-1H-1,2,4-triazol-5-yl}ethyl Carbamate] | 5.4 nM | 52.8 | 285 nM
3 | NC(=O)OCc1nc(Cn2nc(-c3ccc(Cl)cc3)n(C[C@H](OC(N)=O)C(F)(F)F)c2=O)nn1-c1cccc(Cl)c1 [Example 25, (2S)-3-[1-({5-[(Carbamoyloxy)methyl]-1-(3-chlorophenyl)-1H-1,2,4-triazol-3-yl}methyl)-3-(4-chlorophenyl)-5-oxo-1,5-dihydro-4H-1,2,4-triazol-4-yl]-1,1,1-trifluoropropan-2-yl Carbamate] | 26.6 nM | 0.1 | 2.26 nM
4 | NC(=O)OCc1nc(Cn2nc(-c3ccc(Cl)cc3)n(C[C@H](O)C(F)(F)F)c2=O)nn1-c1cccc(F)c1 [Example 26, [3-({3-(4-Chlorophenyl)-5-oxo-4-[(2S)-3,3,3-trifluoro-2-hydroxypropyl]-4,5-dihydro-1H-1,2,4-triazol-1-yl}methyl)-1-(3-fluorophenyl)-1H-1,2,4-triazol-5-yl]methyl Carbamate] | 5.29 nM | 0.9 | 4.82 nM
5 | C[C@@H](OC(N)=O)c1nc(Cn2nc(-c3ccc(Cl)cc3)n(C[C@H](O)C(F)(F)F)c2=O)nn1-c1ccccc1Cl [Example 31, (1R)-1-[1-(2-Chlorophenyl)-3-({3-(4-chlorophenyl)-5-oxo-4-[(2S)-3,3,3-trifluoro-2-hydroxypropyl]-4,5-dihydro-1H-1,2,4-triazol-1-yl}methyl)-1H-1,2,4-triazol-5-yl]ethyl Carbamate] | 0.94 nM | 7.9 | 7.42 nM
6 | C[C@@H](OC(N)=O)c1nc(Cn2nc(-c3ccc(Cl)cc3)n(C[C@H](OC(N)=O)C(F)(F)F)c2=O)nn1-c1ccccc1Cl [Example 32, (2S)-3-[1-({5-[(1R)-1-(Carbamoyloxy)ethyl]-1-(2-chlorophenyl)-1H-1,2,4-triazol-3-yl}methyl)-3-(4-chlorophenyl)-5-oxo-1,5-dihydro-4H-1,2,4-triazol-4-yl]-1,1,1-trifluoropropan-2-yl Carbamate] | 0.51 nM | 20.3 | 10.3 nM
7 | C[C@H](OC(N)=O)c1nc(Cn2nc(-c3ccc(Cl)cc3)n(C[C@H](O)C(F)(F)F)c2=O)nn1-c1ccccc1Cl [Example 33, (1S)-1-[1-(2-Chlorophenyl)-3-({3-(4-chlorophenyl)-5-oxo-4-[(2S)-3,3,3-trifluoro-2-hydroxypropyl]-4,5-dihydro-1H-1,2,4-triazol-1-yl}methyl)-1H-1,2,4-triazol-5-yl]ethyl Carbamate] | 0.99 nM | 3.7 | 3.63 nM
8 | Cc1ccccc1-n1nc(Cn2nc(-c3ccc(Cl)cc3)n(C[C@H](O)C(F)(F)F)c2=O)nc1COC(N)=O [Example 37, [3-({3-(4-Chlorophenyl)-5-oxo-4-[(2S)-3,3,3-trifluoro-2-hydroxypropyl]-4,5-dihydro-1H-1,2,4-triazol-1-yl}methyl)-1-(2-methylphenyl)-1H-1,2,4-triazol-5-yl]methyl Carbamate] | 0.77 nM | 8.6 | 6.62 nM

Second part, the molecule after the results:

Row | IC50 [1] | ratio IC50 hV2/hV1a [1] | IC50 [2] | Compound
9 | 3.3 nM | 15.8 | 52 nM | C[C@@H](OC(N)=O)c1nc(Cn2nc(-c3ccc(Cl)cc3)n(C[C@H](O)C(F)(F)F)c2=O)nn1-c1c(Cl)cncc1Cl [Example 20, (1R)-1-[3-({3-(4-Chlorophenyl)-5-oxo-4-[(2S)-3,3,3-trifluoro-2-hydroxypropyl]-4,5-dihydro-1H-1,2,4-triazol-1-yl}methyl)-1-(3,5-dichloropyridin-4-yl)-1H-1,2,4-triazol-5-yl]ethyl Carbamate]
10 | 9.95 nM | 14.4 | 144 nM | C[C@H](OC(N)=O)c1nc(Cn2nc(-c3ccc(Cl)cc3)n(C[C@H](O)C(F)(F)F)c2=O)nn1-c1ncccc1OC(F)(F)F [Example 22, (1S)-1-{3-({3-(4-Chlorophenyl)-5-oxo-4-[(2S)-3,3,3-trifluoro-2-hydroxypropyl]-4,5-dihydro-1H-1,2,4-triazol-1-yl}methyl)-1-[3-(trifluoromethoxy)pyridin-2-yl]-1H-1,2,4-triazol-5-yl}ethyl Carbamate]
11 | 25.9 nM | 0.2 | 5.29 nM | NC(=O)OCc1nc(Cn2nc(-c3ccc(Cl)cc3)n(C[C@H](O)C(F)(F)F)c2=O)nn1-c1cccc(Cl)c1 [Example 24, [1-(3-Chlorophenyl)-3-({3-(4-chlorophenyl)-5-oxo-4-[(2S)-3,3,3-trifluoro-2-hydroxypropyl]-4,5-dihydro-1H-1,2,4-triazol-1-yl}methyl)-1H-1,2,4-triazol-5-yl]methyl Carbamate]
12 | 1.78 nM | 1.8 | 3.11 nM | COc1ccccc1-n1nc(Cn2nc(-c3ccc(Cl)cc3)n(C[C@H](O)C(F)(F)F)c2=O)nc1COC(N)=O [Example 27, [3-({3-(4-Chlorophenyl)-5-oxo-4-[(2S)-3,3,3-trifluoro-2-hydroxypropyl]-4,5-dihydro-1H-1,2,4-triazol-1-yl}methyl)-1-(2-methoxyphenyl)-1H-1,2,4-triazol-5-yl]methyl Carbamate]
13 | 0.43 nM | 6.0 | 2.57 nM | NC(=O)OCc1nc(Cn2nc(-c3ccc(Cl)cc3)n(C[C@H](O)C(F)(F)F)c2=O)nn1-c1ccccc1Cl [Example 28, [1-(2-Chlorophenyl)-3-({3-(4-chlorophenyl)-5-oxo-4-[(2S)-3,3,3-trifluoro-2-hydroxypropyl]-4,5-dihydro-1H-1,2,4-triazol-1-yl}methyl)-1H-1,2,4-triazol-5-yl]methyl Carbamate]
14 | 1.29 nM | 2.3 | 2.93 nM | NC(=O)OCc1nc(Cn2nc(-c3ccc(Cl)cc3)n(C[C@H](OC(N)=O)C(F)(F)F)c2=O)nn1-c1ccccc1Cl [Example 29, (2S)-3-[1-({5-[(Carbamoyloxy)methyl]-1-(2-chlorophenyl)-1H-1,2,4-triazol-3-yl}methyl)-3-(4-chlorophenyl)-5-oxo-1,5-dihydro-4H-1,2,4-triazol-4-yl]-1,1,1-trifluoropropan-2-yl Carbamate]
15 | 36.6 nM | 0.1 | 3.81 nM | C[C@H](OC(N)=O)c1nc(Cn2nc(-c3ccc(Cl)cc3)n(C[C@H](O)C(F)(F)F)c2=O)nn1-c1cccc(F)c1 [Example 30, (1S)-1-[3-({3-(4-Chlorophenyl)-5-oxo-4-[(2S)-3,3,3-trifluoro-2-hydroxypropyl]-4,5-dihydro-1H-1,2,4-triazol-1-yl}methyl)-1-(3-fluorophenyl)-1H-1,2,4-triazol-5-yl]ethyl Carbamate]
16 | 0.64 nM | 4.3 | 2.75 nM | C[C@H](OC(N)=O)c1nc(Cn2nc(-c3ccc(Cl)cc3)n(C[C@H](OC(N)=O)C(F)(F)F)c2=O)nn1-c1ccccc1Cl [Example 34, (2S)-3-[1-({5-[(1S)-1-(Carbamoyloxy)ethyl]-1-(2-chlorophenyl)-1H-1,2,4-triazol-3-yl}methyl)-3-(4-chlorophenyl)-5-oxo-1,5-dihydro-4H-1,2,4-triazol-4-yl]-1,1,1-trifluoropropan-2-yl Carbamate]
17 | 41.4 nM |  | 1.99 nM | C[C@H](OC(N)=O)c1nc(Cn2nc(-c3ccc(Cl)cc3)n(C[C@H](O)C(F)(F)F)c2=O)nn1-c1cccc(Cl)c1 [Example 35, (1S)-1-[1-(3-Chlorophenyl)-3-({3-(4-chlorophenyl)-5-oxo-4-[(2S)-3,3,3-trifluoro-2-hydroxypropyl]-4,5-dihydro-1H-1,2,4-triazol-1-yl}methyl)-1H-1,2,4-triazol-5-yl]ethyl Carbamate]
18 | 28.6 nM | 0.1 | 1.81 nM | C[C@@H](OC(N)=O)c1nc(Cn2nc(-c3ccc(Cl)cc3)n(C[C@H](O)C(F)(F)F)c2=O)nn1-c1cccc(Cl)c1 [Example 36, (1R)-1-[1-(3-Chlorophenyl)-3-({3-(4-chlorophenyl)-5-oxo-4-[(2S)-3,3,3-trifluoro-2-hydroxypropyl]-4,5-dihydro-1H-1,2,4-triazol-1-yl}methyl)-1H-1,2,4-triazol-5-yl]ethyl Carbamate]
19 | 0.65 nM | 5.5 | 3.56 nM | Cc1ccccc1-n1nc(Cn2nc(-c3ccc(Cl)cc3)n(C[C@H](OC(N)=O)C(F)(F)F)c2=O)nc1COC(N)=O [Example 38, (2S)-3-[1-({5-[(Carbamoyloxy)methyl]-1-(2-methylphenyl)-1H-1,2,4-triazol-3-yl}methyl)-3-(4-chlorophenyl)-5-oxo-1,5-dihydro-4H-1,2,4-triazol-4-yl]-1,1,1-trifluoropropan-2-yl Carbamate]
